Laboratory results taken from patent US20170107207A1, “AMINOPYRAZOLONE DERIVATIVE” (DAIICHI SANKYO COMPANY, LIMITED, priority 2014, published 2017).

Columns and labels:
Type in all cases: cell-based
[1] = tested on: human lymphoma cell line RAMOS cells; assay: Cell growth inhibition test using RAMOS cell, ATP assay (CellTiter-Glo); conditions: Homo sapiens, Ramos, 72 h, cultured 3 days, 50% growth inhibition concentration
How it was run: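 RAMOS cells seeded at 4000 cells/well with compound and cultured 3 days at 37° C, 5% CO2; viability by CellTiter-Glo luminescence. Growth rate T/C % = 100×[(B−C)/(A−C)] using day-0 and final readings; GI50 interpolated from the two concentrations bracketing 50% growth.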

MDA-MB-231 = assay: Cell growth inhibition test, MDA-MB-231; conditions: Homo sapiens, 72 h; MDA-MB-231, Breast cancer, 3 days, CellTiter-Glo
Experimental: (§1) A cell growth inhibition test was carried out by treating a cultured cancer cell line with a test compound for a given period and then counting the number of viable cells by CellTiter-Glo Luminescent Cell Viability Assay (manufactured by Promega Corp.).
(§2) The following cells were inoculated to a 384-well plate containing the compound prepared in advance at predetermined concentrations. […]
(§3) The cells thus inoculated were cultured at 37° C. for 3 days under 5% CO2. […] Then, luminescence intensity was measured using a plate reader.
(§4) The number of viable cells and luminescence intensity have been confirmed to correlate with each other. Therefore, the rate of cell growth was calculated according to the following expression: Rate of cell growth (T/C %) of a test compound-supplemented well=100×[(B−C)/(A−C)] wherein A represents the luminescence intensity (final culture date) of a test compound-free well; B represents the luminescence intensity (final culture date) of a test compound-containing well; and C represents the luminescence intensity (day of cell inoculation) of a well at the start of contact of the cells with the test compound.
(§5) T/C % at the concentration of each of the serially diluted test compounds was determined. […]

BT-474 = assay: Cell growth inhibition test, BT-474; conditions: Homo sapiens, 72 h; BT-474, Breast cancer, 3 days, CellTiter-Glo
Experimental: as §1, §2, §3, §4, §5

ACHN = assay: Cell growth inhibition test, ACHN; conditions: Homo sapiens, 72 h, Kidney cancer, 3 days, CellTiter-Glo
Experimental: as §1, §2, §3, §4, §5

MOLT-4 = assay: Cell growth inhibition test, MOLT-4; conditions: Homo sapiens, 72 h; MOLT-4, Leukemia, 3 days, CellTiter-Glo
Experimental: as §1, §2, §3, §4, §5

CCRF-CEM = assay: Cell growth inhibition test, CCRF-CEM; conditions: Homo sapiens, 72 h, Leukemia, 3 days, CellTiter-Glo
Experimental: as §1, §2, §3, §4, §5

K-562 = assay: Cell growth inhibition test, K-562; conditions: Homo sapiens, K562, 72 h; K-562, Leukemia, 3 days, CellTiter-Glo
Experimental: as §1, §2, §3, §4, §5

RPMI 8226 = assay: Cell growth inhibition test, RPMI 8226; conditions: Homo sapiens, 72 h; RPMI 8226, Multiple myeloma, 3 days, CellTiter-Glo
Experimental: as §1, §2, §3, §4, §5

Hep G2 = assay: Cell growth inhibition test, Hep G2; conditions: Homo sapiens, HepG2, 72 h; Hep G2, Liver cancer, 3 days, CellTiter-Glo
Experimental: as §1, §2, §3, §4, §5

HUH-7 = assay: Cell growth inhibition test, HUH-7; conditions: Homo sapiens, 72 h; HUH-7, Liver cancer, 3 days, CellTiter-Glo
Experimental: as §1, §2, §3, §4, §5

COR-L23 = assay: Cell growth inhibition test, COR-L23; conditions: Homo sapiens, 72 h; COR-L23, Lung cancer, 3 days, CellTiter-Glo
Experimental: as §1, §2, §3, §4, §5

CALU-6 = assay: Cell growth inhibition test, CALU-6; conditions: Homo sapiens, 72 h; CALU-6, Lung cancer, 3 days, CellTiter-Glo
Experimental: as §1, §2, §3, §4, §5

SJSA-1 = assay: Cell growth inhibition test, SJSA-1; conditions: Homo sapiens, 72 h; SJSA-1, Bone and soft tissue tumor, 3 days, CellTiter-Glo
Experimental: as §1, §2, §3, §4, §5

GI50 [1] [µM]	GI50 (MDA-MB-231) [µM]	GI50 (BT-474) [µM]	GI50 (ACHN) [µM]	GI50 (MOLT-4) [µM]	GI50 (CCRF-CEM) [µM]	GI50 (K-562) [µM]	GI50 (HUH-7) [µM]	GI50 (CALU-6) [µM]	GI50 (SJSA-1) [µM]	Structure (SMILES)	GI50 (RPMI 8226) [µM]	GI50 (Hep G2) [µM]	GI50 (COR-L23) [µM]
0.14	0.35	1.9	1.8	0.13	0.22	0.24	0.67	0.43	0.75	CCOc1ccc(Cl)cc1C(=O)NCC(C)(C)CC(=O)Nc1c([C@H](C)CN(C)C)n(C)n(-c2ccccc2)c1=O [Example 68, 5-Chloro-N-[4-({5-[(1R)-2-(dimethylamino)-1-methylethyl]-1-methyl-3-oxo-2-phenyl-2,3-dihydro-1H-pyrazol-4-yl}amino)-2,2-dimethyl-4-oxobutyl]-2-ethoxybenzamide]	0.14	0.58	0.2
0.31	0.89	5	2.5	0.18	0.59	0.56	0.9	0.78	1.3	CCOc1ncc(Cl)cc1C(=O)NCC(C)(C)CC(=O)Nc1c([C@H](C)CN(C)C)n(C)n(-c2ccccc2)c1=O [Example 73, 5-Chloro-N-[4-({5-[(1R)-2-(dimethylamino)-1-methylethyl]-1-methyl-3-oxo-2-phenyl-2,3-dihydro-1H-pyrazol-4-yl}amino)-2,2-dimethyl-4-oxobutyl]-2-ethoxypyridine-3-carboxamide]	0.18	1.1	0.55
0.13	0.77	25	0.97	0.16	0.53	0.63	0.36	0.68	0.87	CCOc1cc(F)c(Cl)cc1C(=O)NCC(C)(C)CC(=O)Nc1c(COC)n(C)n(-c2ccccc2)c1=O [Example 113, 5-Chloro-2-ethoxy-4-fluoro-N-(4-{[5-(methoxymethyl)-1-methyl-3-oxo-2-phenyl-2,3-dihydro-1H-pyrazol-4-yl]amino}-2,2-dimethyl-4-oxobutyl)benzamide]	0.16	0.38	0.42
